From US20260262643A1, “HERBICIDAL BENZOXAZINES” (FMC CORPORATION, priority 2022, published 2026)

Key:
barnyardgrass [1] = test: Test C preemergence; type: in vivo, Echinochloa crusgalli; conditions: 0 to 100 scale (0 no effect, 100 complete control)
In short: (§1)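 Seeds sown in loam soil–sand blend received a directed preemergence soil spray of test chemical in non-phytotoxic solvent with surfactant; postemergence plants (2–10 cm, one- to two-leaf stage) were sprayed with the same formulation. Greenhouse-held 10 days, then visually rated for injury versus untreated controls, 0 (no effect) to 100 (complete control).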

blackgrass [2] = test: Test C preemergence; type: in vivo, Alopecurus myosuroides; conditions: 0 to 100 scale (0 no effect, 100 complete control)
In short: as §1

corn [3] = test: Test C preemergence; type: in vivo, Zea mays; conditions: 0 to 100 scale (0 no effect, 100 complete control)
In short: as §1

green foxtail [4] = test: Test C preemergence; type: in vivo, Setaria viridis; conditions: 0 to 100 scale (0 no effect, 100 complete control)
In short: as §1

kochia [5] = test: Test C preemergence; type: in vivo, Bassia scoparia; conditions: 0 to 100 scale (0 no effect, 100 complete control)
In short: as §1

oat, wild [6] = test: Test C preemergence; type: in vivo, Avena fatua; conditions: 0 to 100 scale (0 no effect, 100 complete control)
In short: as §1

pigweed, palmer [7] = test: Test C preemergence; type: in vivo, Amaranthus palmeri; conditions: 0 to 100 scale (0 no effect, 100 complete control)
In short: as §1

ragweed [8] = test: Test C preemergence; type: in vivo, Ambrosia artemisiifolia; conditions: 0 to 100 scale (0 no effect, 100 complete control)
In short: as §1

ryegrass, Italian [9] = test: Test C preemergence; type: in vivo, Lolium multiflorum; conditions: 0 to 100 scale (0 no effect, 100 complete control)
In short: as §1

soybean [10] = test: Test C preemergence; type: in vivo, Glycine max; conditions: 0 to 100 scale (0 no effect, 100 complete control)
In short: as §1

wheat [11] = test: Test C preemergence; type: in vivo, Triticum aestivum; conditions: 0 to 100 scale (0 no effect, 100 complete control)
In short: as §1

barnyardgrass [12] = test: Test C postemergence; type: in vivo, Echinochloa crusgalli; conditions: 10 days
In short: as §1

blackgrass [13] = test: Test C postemergence; type: in vivo, Alopecurus myosuroides; conditions: 10 days
In short: as §1

corn [14] = test: Test C postemergence; type: in vivo, Zea mays; conditions: 10 days
In short: as §1

green foxtail [15] = test: Test C postemergence; type: in vivo, Setaria viridis; conditions: 10 days
In short: as §1

kochia [16] = test: Test C postemergence; type: in vivo, Bassia scoparia; conditions: 10 days
In short: as §1

oat, wild [17] = test: Test C postemergence; type: in vivo, Avena fatua; conditions: 10 days
In short: as §1

pigweed, palmer [18] = test: Test C postemergence; type: in vivo, Amaranthus palmeri; conditions: 10 days
In short: as §1

ragweed [19] = test: Test C postemergence; type: in vivo, Ambrosia artemisiifolia; conditions: 10 days
In short: as §1

ryegrass, Italian [20] = test: Test C postemergence; type: in vivo, Lolium multiflorum; conditions: 10 days
In short: as §1

soybean [21] = test: Test C postemergence; type: in vivo, Glycine max; conditions: 10 days
In short: as §1

wheat [22] = test: Test C postemergence; type: in vivo, Triticum aestivum; conditions: 10 days
In short: as §1

galium = test: Test C postemergence; type: in vivo, Galium aparine; conditions: 125 g ai/ha, postemergence, 10 days; 0 to 100 scale, 0 no effect, 100 complete control
In short: as §1

horseweed = test: Test C postemergence; type: in vivo, Erigeron canadensis; conditions: 10 days
In short: as §1

barnyardgrass [23] = test: Test D flooded paddy test; type: in vivo, Echinochloa crus-galli; conditions: 250 g ai/ha, applied to paddy water, visual rating after 13 to 14 days, scale 0 to 100 (0 no effect, 100 complete control)
In short: (§2)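 2-leaf plants; flood 3 cm above soil; compound dosed into paddy water; greenhouse 13–14 d; visual rating vs controls, 0–100 (100 = complete control); dash = not tested.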

ducksalad = test: Test D flooded paddy test; type: in vivo, Heteranthera limosa; conditions: 250 g ai/ha, applied to paddy water, visual rating after 13 to 14 days, scale 0 to 100 (0 no effect, 100 complete control)
In short: as §2

rice = test: Test D flooded paddy test; type: in vivo, Oryza sativa; conditions: 250 g ai/ha, applied to paddy water, visual rating after 13 to 14 days, scale 0 to 100 (0 no effect, 100 complete control)
In short: as §2

sedge, umbrella = test: Test D flooded paddy test; type: in vivo, Cyperus difformis; conditions: 250 g ai/ha, applied to paddy water, visual rating after 13 to 14 days, scale 0 to 100 (0 no effect, 100 complete control)
In short: as §2

[24] = Preemergence, 500 g ai/ha, visual rating after 10 days
[25] = Test C, preemergence, 125 g ai/ha
[26] = 125 g ai/ha, postemergence, 0 to 100 scale, 0 no effect, 100 complete control
[27] = Postemergence, 500 g ai/ha, visual 0 to 100 scale (0 no effect, 100 complete control)

## Cc1ccc(-n2cnc(C(C)(F)F)n2)cc1C(=O)N1C[C@H](C)Oc2c(Cl)cccc21 [Compound 248]
Barnyardgrass [1]; [24]
  Plant response rating, Barnyardgrass: 100
Barnyardgrass [1]; [25]
  Barnyardgrass plant response rating: 100
Blackgrass [2]; [24]
  Plant response rating, Blackgrass: 70
Blackgrass [2]; [25]
  Blackgrass plant response rating: 30
Corn [3]; [24]
  Plant response rating, Corn: 50
Corn [3]; [25]
  Corn plant response rating: 20
Green foxtail [4]; [24]
  Plant response rating, Foxtail, Green: 100
Green foxtail [4]; [25]
  Foxtail, Green plant response rating: 100
Kochia [5]; [24]
  Plant response rating, Kochia: 100
Kochia [5]; [25]
  Kochia plant response rating: 100
oat, wild [6]; [24]
  Plant response rating, Oat, Wild: 90
oat, wild [6]; [25]
  Oat, Wild plant response rating: 40
pigweed, palmer [7]; [24]
  Plant response rating, Pigweed, Palmer: 100
pigweed, palmer [7]; [25]
  Pigweed, Palmer plant response rating: 100
Ragweed [8]; [24]
  Plant response rating, Ragweed: 90
Ragweed [8]; [25]
  Ragweed plant response rating: 80
ryegrass, Italian [9]; [24]
  Plant response rating, Ryegrass, Italian: 100
ryegrass, Italian [9]; [25]
  Ryegrass, Italian plant response rating: 90
Soybean [10]; [24]
  Plant response rating, Soybean: 100
Soybean [10]; [25]
  Soybean plant response rating: 60
Wheat [11]; [24]
  Plant response rating, Wheat: 90
Wheat [11]; [25]
  Wheat plant response rating: 40
Barnyardgrass [12]; [26]
  Plant response rating, Barnyardgrass: 50
Barnyardgrass [12]; [27]
  Plant response rating, Barnyardgrass: 70
Blackgrass [13]; [26]
  Plant response rating, Blackgrass: 90
Blackgrass [13]; [27]
  Plant response rating, Blackgrass: 100
Corn [14]; [26]
  Plant response rating, Corn: 60
Corn [14]; [27]
  Plant response rating, Corn: 70
Green foxtail [15]; [26]
  Plant response rating, Foxtail, Green: 90
Green foxtail [15]; [27]
  Plant response rating, Foxtail, Green: 90
Kochia [16]; [26]
  Plant response rating, Kochia: 90
Kochia [16]; [27]
  Plant response rating, Kochia: 100
oat, wild [17]; [26]
  Plant response rating, Oat, Wild: 60
oat, wild [17]; [27]
  Plant response rating, Oat, Wild: 70
pigweed, palmer [18]; [26]
  Plant response rating, Pigweed, Palmer: 90
pigweed, palmer [18]; [27]
  Plant response rating, Pigweed, Palmer: 100
Ragweed [19]; [26]
  Plant response rating, Ragweed: 90
Ragweed [19]; [27]
  Plant response rating, Ragweed: 90
ryegrass, Italian [20]; [26]
  Plant response rating, Ryegrass, Italian: 90
ryegrass, Italian [20]; [27]
  Plant response rating, Ryegrass, Italian: 100
Soybean [21]; [26]
  Plant response rating, Soybean: 100
Soybean [21]; [27]
  Plant response rating, Soybean: 100
Wheat [22]; [26]
  Plant response rating, Wheat: 30
Wheat [22]; [27]
  Plant response rating, Wheat: 90
galium
  Plant response rating, Galium: 100
horseweed; [26]
  Plant response rating, Horseweed: 10
horseweed; [27]
  Plant response rating, Horseweed: 40
Barnyardgrass [23]
  Plant response rating, Barnyardgrass (Flood): 0
ducksalad
  Plant response rating, Ducksalad (Flood): 0
rice
  Plant response rating, Rice (Flood): 0
sedge, umbrella
  Plant response rating, Sedge, Umbrella (Flood): 0
